Measurements published in patent publication US11365216B2, “Antiviral immunotropic agent for the treatment of acute respiratory viral infections” (PVP LABS PTE. LTD., priority 2018, dated 2022).
Where a SMILES comes first, the peptide text is derived from it. [ ]: non-standard residue; d: D form.

How the values were obtained:
[1] = test system: influenza A virus/Aichi/2/69 (H3N2); assay: influenza-induced pneumonia in mice; type: in vivo
[2] = test system: macrophages; assay: phagocytosis and NBT reduction of peritoneal exudate macrophages; type: in vivo, mice; settings: 0.2 mg/kg single dose, IM or intranasal
Experimental: (§1) Dalargin is currently authorised for human use in the single dose range from 1 to 5 mg, which, if recalculated for mice, corresponds to z0.2-1 mg/kg. Therefore, the dose used for evaluating the efficacy of the drug in murine phagocytic peritoneal exudate cells was 0.2 mg/kg. Of additional interest was an investigation of possible effect of the route of administration of the drug on functional activity of the phagocytes.
(§2) The immunomodulating activity of the drug was evaluated by microscopy. The test was performed in 60 male BALB/c mice with a body weight of 18-22 g. The animals were allocated to 6 equal groups of 10 mice each. Two groups served as controls. The active therapy groups received Dalargin IM or intranasally at a single dose of 0.2 mg/kg. Macrophage and neutrophil extraction procedures were performed on the next day after administering the study drugs.
In order to isolate macrophages, the mice were euthanised on day 3 after the peptone injection. Then 3-4 mL of medium 199 with 10% of foetal bovine serum was administered intraperitoneally, and the liquid was aspirated. […]
(§3) The phagocytic activity of neutrophils was evaluated by the following parameters: phagocytic index and phagocyte number. Functional activity of macrophages was evaluated by microscopy, as well as by their ability to absorb nitroblue tetrazolium (NBT) in the activated state.

[3] = test system: influenza A virus/New Caledonia/20/99 (H1N1); assay: microbe, parasite or virus in culture; type: cell-based
[4] = test system: type 5 adenovirus; assay: suppression of cytopathogenic effect of adenovirus in monolayer HeLa culture; type: cell-based
Experimental: The work was performed using type 5 adenovirus, which was procured in 1998 from the D.I. Ivanovsky Research Institute of Virology and stored in the Specialised Collection of a branch of the 48th Central Research Institute of the Ministry of Defence of Russia—Computing Centre.
A HeLa type culture (cervical carcinoma cells) with a density of 200-250 thousand/mL was used. Semisynthetic growth media based on Hank's solution containing 7.5 and 2% bovine serum respectively were used. A 48-hour monolayer culture of HeLa cells was infected with type 5 adenovirus at a dose of 0.01 TCID50 per cell. The monolayer culture was then incubated at 37±0.5° C. for 96 hours.
The antiviral activity of the product was evaluated by the suppression of the cytopathogenic effect (CPE) of the virus in the HeLa culture after the virus was applied to an established monolayer culture of HeLa cells.
Efficacy criteria of the test drug were: CPE detection rate and inhibitory constant (Ki, %). The inhibitory constant was calculated according to the following formula: Ki=100. (Cc-Ct)/Cc, where Cc and Ct is the infectious titre of the virus in the control sample and test sample respectively.

[5] = test system: IFN-α; assay: interferon-inducing effect in mice (ELISA of blood plasma); type: in vivo; settings: 24 hours after administration; Dalargin 1 mg/kg, ARBIDOL intragastrically; versus control groups
Experimental: The experiments were performed in 40 CBA×C57BI/6/male mice with a body weight of 20-25 g. The animals were randomised in 4 groups (of 10 animals each): two active groups (receiving Dalargin or ARBIDOL) and two control groups. One control group was intended for determining baseline INF levels (before the start of the experiment), the other group was intended for determining INF levels at 24 hours after the administration of placebo (saline), ensuring the equivalence of conditions.
Dalargin was administered at a dose of 1 mg/kg, which is equivalent to a human dose of 5-6 mg. ARBIDOL was administered intragastrically as a suspension premix in 1% starch gel. Statistical analysis was performed using the Bonferroni correction for multiple testing.
IFN-α levels in the blood plasma of mice was measured at 24 hours after the administration of the drugs. Blood for interferon determination was sampled from the heart under Nembutal anaesthesia (60 mg/kg). […] IFN levels were determined using commercially available enzyme-linked immunosorbent assay (ELISA) kits manufactured by VeriKine™ (USA). […]
The test samples and diluted standards were applied to the plate in duplicate. […] The activity of bound peroxidase was measured on a UNIPLAN™ (Picon) immunoassay analyser at 450 nm.

[6] = test system: neutrophils; assay: phagocytic activity of peptone-mobilised neutrophils; type: in vivo, mice; settings: 0.2 mg/kg single dose, IM or intranasal
Experimental: as §1, §2
The mice were given an intraperitoneal injection of 3-4 mL of 10% peptone solution as a chemoattractant to cause neutrophil accumulation, and 2 hours later the mice were euthanised using chloroform 2 hours later. […]
as §3

[7] = test system: IL-6; assay: production of pro-inflammatory cytokines in peripheral blood mononuclear cell culture; type: cell-based, healthy donors; settings: 5.10^−8 M, relative to control samples (100%)
Experimental: (§4) The effect of Dalargin on the synthesis of cytokines IL-1 (interleukin-1), IL-6 (interleukin-6) and TNF-α (tumour necrosis factor α) was evaluated in an in vitro experiment using a peripheral blood mononuclear cell culture of healthy donors (n=20). Stimulation with an enterobacterial polysaccharide was used to induce the production of pro-inflammatory cytokines.
(§5) In order to obtain a suspension of mononuclear cells, blood was diluted at a 1:2 ratio with medium 199, applied to a Ficoll-Paque density gradient, d=1.077 g/cm^3, and centrifuged at 400 g for 40 min. The white ring produced at the phase interface, which contained mononuclear cells, was carefully withdrawn with a Pasteur pipette and washed twice with medium 199 using 10-minute-long centrifugation (200 g). The precipitate was resuspended in a nutrient medium, counted in a Goryayev counting chamber and adjusted to the required concentration.
(§6) Dalargin was added at a molar concentration of 5.10^−8 M (Z0.036 μg/mL) to the test samples with the polysaccharide and mononuclear cell suspension. The drug was not added to control samples.
(§7) Cytokine quantitation in blood serum was performed using two-site ELISA.

[8] = test system: IL-1; assay: as above; type: cell-based, healthy donors; settings: 5.10^−8 M, relative to control samples (100%)
Experimental: as §4, §5, §6, §7

[9] = test system: TNF-α; assay: as above; type: cell-based, healthy donors; settings: 5.10^−8 M, relative to control samples (100%)
Experimental: as §4, §5, §6, §7

[10] = test system: natural killer cells; assay: functional (cytotoxic) activity of natural killer cells, radiometric assay with K-562 target cells; type: cell-based, healthy donors; settings: 5.10^−8 M (≈0.036 μg/mL), 24 hours
Experimental: When evaluating the effect of Dalargin in vitro on the functional activity of NK cells, these cells were obtained from a suspension of peripheral blood mononuclear cells of healthy donors (n=20).
Functional activity of NK cells was determined on the basis of the cytotoxic reaction (NK can lyse cells of myeloblastoid and lymphoblastoid lines) using the radiometric assay. To perform it, cells of the K-562 myeloblastoid line at a concentration of 10^6/mL were incubated for one hour at 37° C. with ^3H-uridine at 3 μCi/mL of the cell suspension on day 2 after subcultivation. After the incubation, the cells were washed off the radiolabel in medium 199 three times. […]
In one case, after the effector cells and target cells were applied to the plates, Dalargin was added at a molar concentration of 5.10^−8 M (≈0.036 μg/mL). […] The plates were then incubated for 24 hours in a CO2 incubator at 37° C., whereupon the contents were transferred to fibreglass filters, washed, dried, placed in vials with a scintillation liquid, and radioactivity was determined using a β-particle counter. cytotoxicity index (CI) was determined using the formula CI=((A−B)/(C−B)). 100%, where A is radioactivity of target cells in the presence of effector cells, B is residual radioactivity after treating the target cells with Triton X-100, C is radioactivity in target cells in the absence of effector cells.

| SMILES | efficacy relative to Arbidol in terms of mean lifetime and survival rate ([1]; Dalargin 2 mg/kg/day IM or intranasal) | mortality due to influenza-induced pneumonia ([1]; IM or intranasal 2 mg/kg/day for 5 days, relative to placebo) | weight loss ([1]; relative to control/placebo, weighed on days 3, 5 and 15) | phagocytosis of peritoneal exudate macrophages, ability to reduce NBT [2] | MIC values (MIC50, concentration inhibiting virus reproduction by 50%), comparison ([3]; MDCK tissue culture, hexapeptide versus ARBIDOL) | protective efficacy ([4]; 10 μg/mL) [%] | growth of protective efficacy, administration 24 h before challenge relative to 2 hours after challenge ([4]; added to the maintenance medium) | protection of cells from the cytopathogenic effect of the virus ([4]; administered 24 h before challenge, 0.01 TCID50 per cell, concentrations of 100, 20 and 10) | IFN-α level in blood plasma/serum [5] | phagocytic activity (phagocytosis) of peptone-mobilised neutrophils [6] | lipopolysaccharide-induced production of IL-6 [7] | lipopolysaccharide-induced production of IL-1 [8] | lipopolysaccharide-induced production of TNF-α [9] | effect on cytotoxic activity of natural killer cells [10] | inhibition at 10 µg/mL ([3]; Influenza A virus, H1N1, MDCK, concentration of 10.0 μg/mL, read-out: inhibiting effect on the reproduction of epidemic virus strains) [%] |
| --- | --- | --- | --- | --- | --- | --- | --- | --- | --- | --- | --- | --- | --- | --- | --- |
| CC(C)C[C@H](NC(=O)[C@H](Cc1ccccc1)NC(=O)CNC(=O)[C@@H](C)NC(=O)[C@@H](N)Cc1ccc(O)cc1)C(=O)N[C@@H](CCCNC(=N)N)C(=O)O [Dalargin, tyrosyl-D-alanyl-glycyl-phenylalanyl-leucyl-arginine] (H-Y[dA]GFLR-OH) | greater efficacy | reduces the mortality | reduces weight loss | stimulating effect | lower MIC values | 40.0 | 10-20% | almost completely protected | significant production | capable of increasing the phagocytic activity | significant suppression | significant suppression | significant suppression | immunotropic potential |  |
| CCOC(=O)c1c(CSc2ccccc2)n(C)c2cc(Br)c(O)c(CN(C)C)c12 [ARBIDOL, reference compound] |  |  |  |  |  |  |  |  |  |  |  |  |  |  | 100 |
